# Starred links: 1 amine or outer side, 2 acyl side, 3 side chain; linkers in the order of their positions; H or OH if unused. Positions of bridges follow the written chain, without caps; N, C: chain ends. Non-standard residues stand in square brackets, D forms with d. Residues, ends and D or L forms follow the SMILES beside them. *: point of attachment. hPhe(3,5-F2-4-CF3) = N[C@@H](CCc1cc(F)c(C(F)(F)F)c(F)c1)C(=O)O; hPhe(3-Cl-4-CF3) = N[C@@H](CCc1ccc(C(F)(F)F)c(Cl)c1)C(=O)O; hPhe(3-F,4-CF3) = N[C@@H](CCc1ccc(C(F)(F)F)c(F)c1)C(=O)O; X88 = O=C([C@H](CCc1ccc(OC(F)(F)F)c(Cl)c1)N[*:1])[*:2]; NMePhe(4-CF3) = CN[C@@H](Cc1ccc(C(F)(F)F)cc1)C(=O)O; X69 = O=C([C@@H]1C[C@H](n2ccnn2)CN1[*:1])[*:2]; 3Oxa8azabicyclo(3.2.1)octane = C1CC2COCC1N2*; NMePhe(4-Me) = CN[C@@H](Cc1ccc(C)cc1)C(=O)O; NMedβ3hAla = C[C@H](CC(=O)[*:2])N(C)[*:1]; NMeAla(cPent) = CN[C@@H](CC1CCCC1)C(=O)O; NMeGly(cPent) = CN[C@H](C(=O)O)C1CCCC1; Pro(4,4-F2) = O=C(O)[C@@H]1CC(F)(F)CN1; NMe3Pal = CN[C@@H](Cc1cccnc1)C(=O)O; NMeCha = CN[C@@H](CC1CCCCC1)C(=O)O; cisHyp = O=C(O)[C@@H]1C[C@H](O)CN1; Gly(N-(CH2)2OEt) = CCOCCNCC(=O)O; Hyp = O=C(O)[C@@H]1C[C@@H](O)CN1; NMeChg = CN[C@H](C(=O)O)C1CCCCC1; NMeI = CC[C@H](C)[C@H](NC)C(=O)O; NMeT = CN[C@H](C(=O)O)[C@@H](C)O; NMeD = CN[C@@H](CC(=O)O)C(=O)O; NMeL = CN[C@@H](CC(C)C)C(=O)O; NMeV = CN[C@H](C(=O)O)C(C)C; d(β3hA) = C[C@@H](N)CC(=O)O; NMeS = CN[C@@H](CO)C(=O)O; NMeA = CN[C@@H](C)C(=O)O; Piperidide = C1CCN(*)CC1; Pyrrolidide = C1CCN(*)C1; Ac5c = NC1(C(=O)O)CCCC1; Aze = O=C(O)[C@@H]1CCN1; Ethyl(2,2-F2) = FC(F)C*; Meb = Cc1ccc(C*)cc1; X24 = c1cncc(C*)c1; X27 = Clc1ccccc1C*; Sar = CNCC(=O)O; Propyl = CCC*
# Tested on: Human pancreatic cancer cell line AsPC-1
# Assay: Measurement of AsPC-1 cell growth inhibition (AsPC-1 CGI)
# Assay type: cell-based
# Conditions: 96 h
# Summary of the method: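 AsPC-1 cells in 15% FBS RPMI-1640 were exposed to test compound for 96 hours at 37° C, with CellTiter-Glo as endpoint.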
row,SMILES,IC50 [nM]
1,CCOCCN1CC(=O)NC2(CCCC2)C(=O)N(C)[C@@H](C2CCCCC2)C(=O)N(C)[C@H](C(=O)N2CCCCC2)CC(=O)N(C)[C@@H](CC(C)C)C(=O)N[C@@H]([C@@H](C)CC)C(=O)N(C)CC(=O)N(C)CC(=O)N(C)[C@@H](CC2CCCCC2)C(=O)N(C)CC(=O)N[C@@H](CCc2ccc(C(F)(F)F)c(Cl)c2)C1=O [Compound 872] ([NMeL]I[Sar][Sar][NMeCha][Sar][hPhe(3-Cl-4-CF3)][Gly(N-(CH2)2OEt)][Ac5c][NMeChg][NMeD]-Piperidide; lactam N-11),100 to 500
2,"CC[C@H](C)[C@@H]1NC(=O)[C@H](CC(C)C)N(C)C(=O)C[C@@H](C(=O)N2CCCCC2)N(C)C(=O)[C@H](CC(C)C)N(C)C(=O)C2(CCCC2)NC(=O)[C@@H]2C[C@H](OCc3ccccc3Cl)CN2C(=O)[C@H](CCc2ccc(C(F)(F)F)c(F)c2)NC(=O)CN(C)C(=O)[C@H](CC2CCCCC2)N(C)C(=O)CN(C)C(=O)CN(C)C1=O [Compound 2132] ([NMeL]I[Sar][Sar][NMeCha][Sar][hPhe(3-F,4-CF3)][cisHyp](X27)[Ac5c][NMeL][NMeD]-Piperidide; lactam N-11)",> 500
3,CC[C@H](C)[C@@H]1NC(=O)[C@H](CC(C)C)N(C)C(=O)C[C@@H](C(=O)N2CCCCC2)N(C)C(=O)[C@H](C(C)C)N(C)C(=O)C2(CCCC2)NC(=O)[C@@H]2CCCN2C(=O)[C@H](CCc2ccc(C(F)(F)F)c(Cl)c2)NC(=O)CN(C)C(=O)[C@H](CC2CCCCC2)N(C)C(=O)[C@@H]2CCN2C(=O)[C@H]([C@@H](C)O)N(C)C1=O [Compound 496] ([NMeL]I[NMeT][Aze][NMeCha][Sar][hPhe(3-Cl-4-CF3)]P[Ac5c][NMeV][NMeD]-Piperidide; lactam N-11),100 to 500
4,"CC[C@H](C)[C@@H]1NC(=O)[C@H](CC(C)C)N(C)C(=O)C[C@@H](C(=O)N2CCCCC2)N(C)C(=O)[C@H](CC(C)C)N(C)C(=O)C2(CCCC2)NC(=O)[C@@H]2C[C@H](OCc3ccc(C)cc3)CN2C(=O)[C@H](CCc2ccc(C(F)(F)F)c(F)c2)NC(=O)CN(C)C(=O)[C@H](CC2CCCCC2)N(C)C(=O)CN(C)C(=O)CN(C)C1=O [Compound 2140] ([NMeL]I[Sar][Sar][NMeCha][Sar][hPhe(3-F,4-CF3)][cisHyp](Meb)[Ac5c][NMeL][NMeD]-Piperidide; lactam N-11)",> 500
5,CC[C@H](C)[C@@H]1NC(=O)[C@H](CC(C)C)N(C)C(=O)C[C@@H](C(=O)N(C)C)NC(=O)[C@H]([C@@H](C)CC)N(C)C(=O)C2(CCCC2)NC(=O)[C@@H]2CCCN2C(=O)[C@H](CCc2ccc(C(F)(F)F)c(Cl)c2)NC(=O)CN(C)C(=O)[C@H](CC2CCCCC2)N(C)C(=O)[C@@H]2CCN2C(=O)[C@H](C)N(C)C1=O [Compound 568] ([NMeL]I[NMeA][Aze][NMeCha][Sar][hPhe(3-Cl-4-CF3)]P[Ac5c][NMeI]D-NMe2; lactam N-11),100 to 500
6,CCO[C@@H]1C[C@H]2C(=O)NC3(CCCC3)C(=O)N(C)[C@@H](CC(C)C)C(=O)N(C)[C@H](C(=O)N3CCCC3)CC(=O)N(C)[C@@H](CC(C)C)C(=O)N[C@@H]([C@@H](C)CC)C(=O)N(C)CC(=O)N(C)CC(=O)N(C)[C@@H](CC3CCCCC3)C(=O)N(C)CC(=O)N[C@@H](CCc3ccc(C(F)(F)F)c(Cl)c3)C(=O)N2C1 [Compound 1748] ([NMeL]I[Sar][Sar][NMeCha][Sar][hPhe(3-Cl-4-CF3)][Hyp](Et)[Ac5c][NMeL][NMeD]-Pyrrolidide; lactam N-11),50 to 100
7,CC[C@H](C)[C@@H]1NC(=O)[C@H](CC(C)C)N(C)C(=O)C[C@@H](C)N(C)C(=O)[C@H](C(C)C)N(C)C(=O)C2(CCCC2)NC(=O)[C@@H]2CCCN2C(=O)[C@H](CCc2ccc(C(F)(F)F)c(Cl)c2)NC(=O)CN(C)C(=O)[C@H](CC2CCCCC2)N(C)C(=O)[C@@H]2CCN2C(=O)CN(C)C1=O [Compound 1648] (cyclo([Ac5c][NMeV][NMedβ3hAla][NMeL]I[Sar][Aze][NMeCha][Sar][hPhe(3-Cl-4-CF3)]P)),100 to 500
8,CC[C@H](C)[C@@H]1NC(=O)[C@H](CC(C)C)N(C)C(=O)C[C@@H](C(=O)N2CCCC2)N(C)C(=O)[C@H](C2CCCCC2)N(C)C(=O)C2(CCCC2)NC(=O)[C@H](Cc2cccnc2)N(C)C(=O)[C@H](CCc2ccc(C(F)(F)F)c(Cl)c2)NC(=O)CN(C)C(=O)[C@H](CC2CCCCC2)N(C)C(=O)CN(C)C(=O)CN(C)C1=O [Compound 1693] ([NMeL]I[Sar][Sar][NMeCha][Sar][hPhe(3-Cl-4-CF3)][NMe3Pal][Ac5c][NMeChg][NMeD]-Pyrrolidide; lactam N-11),100 to 500
9,"CC[C@H](C)[C@@H]1NC(=O)[C@H](CC(C)C)N(C)C(=O)C[C@@H](C)N(C)C(=O)[C@H](C2CCCC2)N(C)C(=O)C2(CCCC2)NC(=O)[C@@H]2CC(F)(F)CN2C(=O)[C@H](CCc2cc(F)c(C(F)(F)F)c(F)c2)NC(=O)CN(C)C(=O)[C@H](Cc2ccc(C(F)(F)F)cc2)N(C)C(=O)[C@@H]2CCN2C(=O)[C@H](C)N(C)C1=O [Compound 900] (cyclo([Ac5c][NMeGly(cPent)][NMedβ3hAla][NMeL]I[NMeA][Aze][NMePhe(4-CF3)][Sar][hPhe(3,5-F2-4-CF3)][Pro(4,4-F2)]))",20 to 50
10,CC[C@H](C)[C@@H]1NC(=O)[C@H](CC(C)C)N(C)C(=O)C[C@@H](C(=O)N2CCCCC2)N(C)C(=O)[C@H](C2CCCCC2)N(C)C(=O)C2(CCCC2)NC(=O)[C@@H]2C[C@H](OCc3cccnc3)CN2C(=O)[C@H](CCc2ccc(C(F)(F)F)c(Cl)c2)NC(=O)CN(C)C(=O)[C@H](CC2CCCCC2)N(C)C(=O)CN(C)C(=O)CN(C)C1=O [Compound 2120] ([NMeL]I[Sar][Sar][NMeCha][Sar][hPhe(3-Cl-4-CF3)][cisHyp](X24)[Ac5c][NMeChg][NMeD]-Piperidide; lactam N-11),100 to 500
11,"CC[C@H](C)[C@@H]1NC(=O)[C@H](CC(C)C)N(C)C(=O)C[C@@H](C(=O)N2CCCCC2)N(C)C(=O)[C@H](C2CCCCC2)N(C)C(=O)C2(CCCC2)NC(=O)[C@@H]2C[C@@H](OCC(F)F)CN2C(=O)[C@H](CCc2ccc(C(F)(F)F)c(Cl)c2)NC(=O)CN(C)C(=O)[C@H](CC2CCCCC2)N(C)C(=O)CN(C)C(=O)CN(C)C1=O [Compound 2119] ([NMeL]I[Sar][Sar][NMeCha][Sar][hPhe(3-Cl-4-CF3)][Hyp](Ethyl(2,2-F2))[Ac5c][NMeChg][NMeD]-Piperidide; lactam N-11)",20 to 50
12,CC[C@H](C)[C@@H]1NC(=O)[C@H](CC(C)C)N(C)C(=O)C[C@@H](C(=O)N2CCCCC2)N(C)C(=O)[C@H](C2CCCCC2)N(C)C(=O)C2(CCCC2)NC(=O)[C@H](C)N(C)C(=O)[C@H](CCc2ccc(C(F)(F)F)c(Cl)c2)NC(=O)CN(C)C(=O)[C@H](CC2CCCCC2)N(C)C(=O)CN(C)C(=O)CN(C)C1=O [Compound 294] ([NMeL]I[Sar][Sar][NMeCha][Sar][hPhe(3-Cl-4-CF3)][NMeA][Ac5c][NMeChg][NMeD]-Piperidide; lactam N-11),100 to 500
13,"CC[C@H](C)[C@@H]1NC(=O)[C@H](CC(C)C)N(C)C(=O)C[C@@H](C(=O)N2CCCCC2)N(C)C(=O)[C@H](C(C)C)N(C)C(=O)C2(CCCC2)NC(=O)[C@@H]2C[C@H](n3ccnn3)CN2C(=O)[C@H](CCc2ccc(C(F)(F)F)c(Cl)c2)NC(=O)CN(C)C(=O)[C@H](CC2CCCC2)N(C)C(=O)CN(C)C(=O)CN(C)C1=O [Compound 2115, (3S,9S,18S,21S,25S,28S,34S,36S)-3-[2-[3-chloro-4-(trifluoromethyl)phenyl]ethyl]-9-(cyclopentylmethyl)-21-isobutyl-28-isopropyl-7,10,13,16,22,26,29-heptamethyl-18-[(1S)-1-methylpropyl]-25-(piperidine-1-carbonyl)-36-(triazol-1-yl)spiro[1,4,7,10,13,16,19,22,26,29,32-undecazabicyclo[32.3.0]heptatriacontane-31,1′-cyclopentane]-2,5,8,11,14,17,20,23,27,30,33-undecone] ([NMeL]I[Sar][Sar][NMeAla(cPent)][Sar][hPhe(3-Cl-4-CF3)][X69][Ac5c][NMeV][NMeD]-Piperidide; lactam N-11)",> 500
14,CCCOC[C@H]1C(=O)N(C)CC(=O)N[C@@H](CCc2ccc(C(F)(F)F)c(Cl)c2)C(=O)N2CCC[C@H]2C(=O)NC2(CCCC2)C(=O)N(C)[C@@H](C2CCCC2)C(=O)N(C)[C@H](C(=O)N2C3CCC2COC3)CC(=O)N(C)[C@@H](CC2CCCC2)C(=O)N[C@@H]([C@@H](C)CC)C(=O)N[C@@H](C)C(=O)N2CC[C@H]2C(=O)N1C [Compound 1359] ([NMeAla(cPent)]IA[Aze][NMeS](Propyl)[Sar][hPhe(3-Cl-4-CF3)]P[Ac5c][NMeGly(cPent)][NMeD]-{3Oxa8azabicyclo(3.2.1)octane}; lactam N-11),50 to 100
15,"CC[C@H](C)[C@@H]1NC(=O)[C@H](CC(C)C)N(C)C(=O)C[C@@H](C)N(C)C(=O)[C@H]([C@@H](C)CC)N(C)C(=O)C2(CCCC2)NC(=O)[C@@H]2CCCN2C(=O)[C@H](CCc2ccc(C(F)(F)F)c(F)c2)NC(=O)CN(C)C(=O)[C@H](C2CCCC2)N(C)C(=O)[C@@H]2CCN2C(=O)[C@H](C)N(C)C1=O [Compound 909] (cyclo([Ac5c][NMeI][NMedβ3hAla][NMeL]I[NMeA][Aze][NMeGly(cPent)][Sar][hPhe(3-F,4-CF3)]P))",50 to 100
16,CC[C@H](C)[C@@H]1NC(=O)[C@H](CC(C)C)N(C)C(=O)C[C@@H](C(=O)N2CCCCC2)N(C)C(=O)[C@H](C2CCCC2)N(C)C(=O)C2(CCCC2)NC(=O)[C@@H]2CCCN2C(=O)[C@H](CCc2ccc(OC(F)(F)F)c(Cl)c2)NC(=O)CN(C)C(=O)[C@H](CC2CCCCC2)N(C)C(=O)[C@@H]2CCN2C(=O)[C@H](C)N(C)C1=O [Compound 2057] ([NMeL]I[NMeA][Aze][NMeCha][Sar][X88]P[Ac5c][NMeGly(cPent)][NMeD]-Piperidide; lactam N-11),50 to 100
17,CC[C@H](C)[C@@H]1NC(=O)[C@H](C)N(C)C(=O)C[C@@H](C)NC(=O)[C@H](C2CCCC2)N(C)C(=O)C2(CCCC2)NC(=O)[C@@H]2CCCN2C(=O)[C@H](CCc2ccc(C(F)(F)F)c(Cl)c2)NC(=O)CN(C)C(=O)[C@H](Cc2ccc(C)cc2)N(C)C(=O)[C@@H]2CCN2C(=O)[C@H](C)N(C)C1=O [Compound 1514] (cyclo([Ac5c][NMeGly(cPent)][d(β3hA)][NMeA]I[NMeA][Aze][NMePhe(4-Me)][Sar][hPhe(3-Cl-4-CF3)]P)),100 to 500

# Reference: US12371454B2, “Cyclic peptide compound having Kras inhibitory action” (priority 2019, dated 2025)
